# Measured values from publication PMC9820279 (International Journal of Molecular Sciences, 2022).
# Like-named read-outs stand apart in the source and are kept apart here.
# Tested on: HBMEC monolayer
# [1] = matrix ASFE extract 24 µg/mL, 2 h incubation, n.d = not detected in lower compartment
# [2] = matrix ASFE extract 24 µg/mL, 4 h incubation, n.d = not detected in lower compartment
smiles,measurement,setting,value
C=CC(C)(O)CCC=C(C)CCC=C(C)C (mixture of isomers) [Nerolidol],Te % (SEM) 2 h,human,30.1 (2.5) %
same,Te % (SEM) 4 h,human,59.8 (2.4) %
"C[C@H]1[C@H](C)CC[C@]2(CO)CC[C@]3(C)C(=CC[C@@H]4[C@@]5(C)CC[C@H](O)C(C)(C)[C@@H]5CC[C@]43C)[C@H]12 (single isomer, unassigned) [Uvaol Isomer I, Uvaol]",Te % (SEM) 2 h,human,3.3 (0.1) %
same,Te % (SEM) 4 h,human,38.8 (3.2) %
"C[C@H]1[C@H](C)CC[C@]2(CO)CC[C@]3(C)C(=CC[C@@H]4[C@@]5(C)CC[C@H](O)C(C)(C)[C@@H]5CC[C@]43C)[C@H]12 (single isomer, unassigned) [Uvaol Isomer II, Uvaol]",Te % (SEM) 2 h,human,17.7 (1.0) %
same,Te % (SEM) 4 h,human,38.3 (0.7) %
CC1=CCC2C(C1)C2(C)C (centres unmarked) [3-Carene],Te % (SEM) 4 h,"human, 4 h, 15 µg/mL",20.3 (0.9) %
C/C=C/C(=O)C1=C(C)CC(O)CC1(C)C (stereo not drawn) [3-hydroxy-β-damascone],Te % (SEM) 2 h,,84.5 (3.2) %
C[C@@H]1CC[C@@H]2[C@@H]1[C@H]1[C@@H](CC[C@@]2(C)O)C1(C)C [(-)-Globulol],Te % (SEM) 2 h,,44.1 (3.6) %
CC1=CCCC2(C)CCC3C(C)(C)CC132 (stereo not drawn) [(−)-α-Panasinsen],Te % (SEM) 2 h,,19.8 (0.2) %
CC1(C)C2CCC1(C)C(O)C2 (centres unmarked) [Borneol],Te % (SEM) 2 h,"human, 2 h, 40 µg/mL",8.5 (0.3) %
same,Te % (SEM) 4 h,"human, 4 h, 40 µg/mL",35.2 (0.1) %
O=C(/C=C/c1ccc(O)c(O)c1)c1ccc(O)cc1O [Butein],Te % (SEM) 2 h,[1],27.5 (2.0) %
same,Te % (SEM) 4 h,[2],36.3 (2.6) %
O=C(O)/C=C/c1ccc(O)c(O)c1 [Caffeic acid],Te % (SEM) 2 h,"human, 2 h, 24 µg/mL",55.4 (3.7) %
same,Te % (SEM) 2 h,"human, 2 h, 30 µg/mL",34.8 (1.2) %
same,Te % (SEM) 4 h,"human, 4 h, 24 µg/mL",68.3(0.3) %
same,Te % (SEM) 4 h,"human, 4 h, 30 µg/mL",50.1 (3.4) %
O=C(/C=C/c1ccc(O)c(O)c1)OC1[C@H](O)CC(O)(C(=O)O)C[C@H]1O (some centres unmarked) [Caffeoylquinic acid],Te % (SEM) 2 h,,15.7 (0.4) %
same,Te % (SEM) 4 h,,74.8 (2.9) %
CC(C)[C@H](C)CC[C@@H](C)[C@H]1CC[C@H]2[C@@H]3CC=C4C[C@@H](O)CC[C@]4(C)[C@H]3CC[C@]12C [Campesterol],Te % (SEM) 2 h,human,68.7 (2.2) %
C=C1CC[C@H]2O[C@]2(C)CC[C@@H]2[C@@H]1CC2(C)C [Caryophyllene oxide],Te % (SEM) 2 h,,67.7 (0.9) %
C[C@H]1[C@H](C)CC[C@]2(C(=O)O)CC[C@]3(C)C(=CC[C@@H]4[C@@]5(C)C[C@@H](O)[C@H](O)C(C)(C)[C@@H]5CC[C@]43C)[C@H]12 [Corosolic acid],Te % (SEM) 2 h,[1],33.4 (1.9) %
same,Te % (SEM) 4 h,[2],39.6 (1.9) %
O=C(/C=C/c1ccc(O)cc1)O[C@@H](C(=O)O)[C@@H](O)C(=O)O [Coutaric acid],Detection / transport to lower compartment (brain side) of HBMEC-BBB model,ASFE extract,not detected in the lower compartment
CC1(C)CCCC2(C)OC(=O)C=C12 (centres unmarked) [Dihydroactinidiolide],Te % (SEM) 2 h,human,42.2 (3.5) %
same,Te % (SEM) 4 h,human,51.8 (3.0) %
C=C[C@]1(C)CC[C@@H](C(C)(C)O)C[C@H]1C(=C)C [Elemol],Te % (SEM) 2 h,,24.6 (0.5) %
same,Te % (SEM) 4 h,,25.4 (1.6) %
CCOC(=O)/C=C/c1ccc(O)c(O)c1 [Ethyl caffeate],Te % (SEM) 2 h,,33.4 (2.4) %
same,Te % (SEM) 4 h,,35.7 (0.3) %
O=C(O)c1cc(O)c(O)c(O)c1 [Gallic acid],Te % (SEM) 2 h,"human, 2 h, 30 µg/mL",33.0 (1.9)/39.9 (1.4) %
same,Te % (SEM) 4 h,"human, 4 h, 30 µg/mL",62.9 (0.3)/67.9(1.3) %
same,Te % (SEM) 2 h,[1],33.0 (1.9)/39.9 (1.4) %
same,Te % (SEM) 4 h,[2],62.9 (0.3)/67.9(1.3) %
CC(CC(=O)CC(C)C1CC(O)C2(C)C3=C(C(=O)CC12C)C1(C)CCC(O)C(C)(CO)C1CC3)C(=O)O (centres unmarked) [Ganolucidic acid C],Te % (SEM) 2 h,[1],11.7 (0.7) %
same,Te % (SEM) 4 h,[2],15.6 (0.3) %
CC(C)=CCC/C(C)=C/CC/C(C)=C/CC/C(C)=C/CO [Geranylgeraniol],Te % (SEM) 2 h,,30.2 (1.1) %
same,Te % (SEM) 4 h,,56.6 (3.1) %
C=C1/C=C/[C@H](C(C)C)CC/C(C)=C/CC1 [Germacrene D],Te % (SEM) 2 h,,3.2 (0.2) %
same,Te % (SEM) 4 h,,6.6 (0.4) %
COc1ccc([C@@H]2CC(=O)c3c(O)cc(O)cc3O2)cc1O [Hesperetin],Te % (SEM) 2 h,"human, 2 h, 24 µg/mL",65.5 (4.8) %
same,Te % (SEM) 4 h,"human, 4 h, 24 µg/mL",67.2 (3.6) %
CC1(C)C[C@H](O)C[C@]2(C)OC(=O)C=C12 [Isololiolide],Te % (SEM) 2 h,,33.0 (2.6) %
same,Te % (SEM) 4 h,,61.4 (4.3) %
C=CC(C)(O)CCCC(C)CCCC(C)CCCC(C)C (centres unmarked) [Isophytol],Te % (SEM) 2 h,,15.6 (1.0) %
same,Te % (SEM) 4 h,,58.0 (1.7) %
O=c1c(O)c(-c2ccc(O)cc2)oc2cc(O)cc(O)c12 [Kaempferol],Te % (SEM) 2 h,"human, 2 h, 24 µg/mL",31.5 (1.1) %
same,Te % (SEM) 4 h,"human, 4 h, 24 µg/mL",36.5 (2.2) %
CC1=CC[C@@H](C(C)(C)O)CC1 [L-α-Terpineol],Te % (SEM) 2 h,,17.6 (1.3) %
same,Te % (SEM) 4 h,,59.3 (0.4) %
C=C(C)C1CCC2(C)OC2C1 (centres unmarked) [Limonene Epoxide],Te % (SEM) 2 h,,19.5 (1.2) %
same,Te % (SEM) 4 h,,42.4 (3.2) %
C=C(C)[C@H]1CC=C(C)CC1 [Limonene],Te % (SEM) 2 h,,33.6 (2.3) %
same,Te % (SEM) 4 h,,59.3 (2.9) %
CC1(C)C[C@@H]2C3=CC[C@@H]4[C@@]5(C)CC[C@H](O)[C@@](C)(C=O)C5CC[C@@]4(C)[C@]3(C)CC[C@@]2(C(=O)O)C[C@@H]1O (some centres unmarked) [Lucyin A],Te % (SEM) 2 h,[1],7.6 (0.5) %
same,Te % (SEM) 4 h,[2],25.3 (0.7) %
C=C(C)[C@@H]1CCC2=CC(=O)C[C@@H](C)[C@]2(C)C1 [Nootkatone],Te % (SEM) 2 h,human,29.9 (0.9) %
same,Te % (SEM) 4 h,human,43.0 (3.4) %
CC(=O)OC(C)(C)[C@@H]1CC[C@@]2(C)CO[C@]3(C)C=CO[C@]23C1 [Phytuberin],Te % (SEM) 2 h,,33.4 (1.5) %
same,Te % (SEM) 4 h,,79.6 (2.2) %
O=C(O)c1ccc(O)c(O)c1 [Protocatechuic acid],Te % (SEM) 2 h,[1],45.1 (3.8) %
same,Te % (SEM) 4 h,[2],71.7 (3.2) %
O=Cc1ccc(O)c(O)c1 [Protocatechuic aldehyde],Te % (SEM) 2 h,[1],20.3 (1.5) %
same,Te % (SEM) 4 h,[2],78.2 (5.7) %
O=C(O)[C@]1(O)C[C@@H](O)[C@@H](O)[C@H](O)C1 [Quinic acid],Te % (SEM) 2 h,"human, 2 h, 30 µg/mL",20.1 (1.6) %
same,Te % (SEM) 4 h,"human, 4 h, 30 µg/mL",52.5 (1.4) %
O=C(/C=C/c1ccc(O)c(O)c1)O[C@H](Cc1ccc(O)c(O)c1)C(=O)O [Rosmarinic acid],Te % (SEM) 2 h,human,41.0 (2.3) %
same,Te % (SEM) 4 h,human,90.3 (4.2) %
C[C@@H]1O[C@@H](OC[C@H]2O[C@@H](Oc3c(-c4ccc(O)c(O)c4)oc4cc(O)cc(O)c4c3=O)[C@H](O)[C@@H](O)[C@@H]2O)[C@H](O)[C@H](O)[C@H]1O [Rutin],Detection / transport to brain side of HBMEC-BBB model,,poor transport trough the BBB
CC[C@H](/C=C/[C@@H](C)[C@H]1CC[C@H]2[C@@H]3CC=C4C[C@@H](O)CC[C@]4(C)[C@H]3CC[C@]12C)C(C)C [Stigmasterol],Te % (SEM) 2 h,human,40.4 (2.2) %
same,Te % (SEM) 4 h,human,64.5 (0.4) %
COc1cc(C=O)cc(OC)c1O [Syringaldehyde],Te % (SEM) 2 h,human,22.7 (1.5)/33.4 (2.2) %
same,Te % (SEM) 4 h,human,45.7 (3.2)/42.0 (1.4) %
same,Te % (SEM) 2 h,[1],22.7 (1.5)/33.4 (2.2) %
same,Te % (SEM) 4 h,[2],45.7 (3.2)/42.0 (1.4) %
Cc1ccc(C(C)C)c(O)c1 [Thymol],Te % (SEM) 2 h,"human, 2 h, 40 µg/mL",34.1 (0.1) %
same,Te % (SEM) 4 h,"human, 4 h, 40 µg/mL",47.0 (1.7) %
"CCC(O)C1CC(C)C2(CC(=O)C3(C)C4=C(CCC32C)C2(C)CCC(=O)C(C)(CO)C2CC4)O1 [Triterpene, (23S,24S)-17,23-Epoxy-24,29-dihydroxy-27-norlanost-8-ene-3,15-dione]",Te % (SEM) 2 h,[1],30.4 (1.7) %
same,Te % (SEM) 4 h,[2],82.9 (5.3) %
C=C(C)[C@@H]1CCC2=CCC[C@@H](C)[C@]2(C)C1 [Valencene],Te % (SEM) 2 h,,51.9 (4.2) %
COc1cc(C(=O)O)ccc1O [Vanillic acid],Te % (SEM) 2 h,[1],38.9 (1.2) %
same,Te % (SEM) 4 h,[2],42.2 (0.7) %
CC(C)C1CCC2(C)C3CC=C(C=O)C2C13 (centres unmarked) [Ylangenal],Te % (SEM) 2 h,,32.0 (2.7) %
same,Te % (SEM) 4 h,,36.9 (0.4) %
O=C(O)C=Cc1ccc(O)cc1 [p-Coumaric acid],Te % (SEM) 2 h,human,9.1 (0.6) %
same,Te % (SEM) 4 h,human,37.8 (2.5) %
O=C(O)c1ccc(O)cc1 [p-Salycilic acid],Te % (SEM) 2 h,,25.5 (1.8) %
same,Te % (SEM) 4 h,,43.4 (1.3) %
Cc1c(C)c2c(c(C)c1O)CC[C@@](C)(CCC[C@H](C)CCC[C@H](C)CCCC(C)C)O2 [α-Tocopherol],Te % (SEM) 2 h,"human, 2 h, 15 µg/mL",18.3 (0.8) %
same,Te % (SEM) 2 h,"human, 2 h, 40 µg/mL",19.8 (0.2) %
same,Te % (SEM) 4 h,"human, 4 h, 15 µg/mL",29.1 (1.5) %
same,Te % (SEM) 4 h,"human, 4 h, 40 µg/mL",39.7 (3.0) %
C=C1CCC[C@]2(C)CC[C@H]3C(C)(C)C[C@]132 [β-Panasinsene],Te % (SEM) 2 h,,33.4 (1.5) %
same,Te % (SEM) 4 h,,34.8 (1.0) %
C=CC(=C)CC/C=C(\C)CC/C=C(\C)C=O [β-Sinensal],Te % (SEM) 2 h,,31.6 (1.2) %
same,Te % (SEM) 4 h,,38.2 (2.4) %
Cc1cc(O)c(C)c2c1O[C@](C)(CCC[C@H](C)CCC[C@H](C)CCCC(C)C)CC2 [β-Tocopherol],Te % (SEM) 4 h,,15.2 (0.8) %
